Assay [1] has as its system L. amazonensis amastigotes. Also noted: method as in Oliveira and co-workers. Conditions: ref Oliveira and co-workers; read-out: IC50 against L. amazonensis amastigotes; cited from earlier work.
The test system of another assay is L. major promastigotes. Put plainly: Activity against L. major promastigotes (MTT, 72 h). The format is cell-based, Leishmania major. Conditions: mean ± SD, read-out: EC50 L. major prom. The method, then:
(§1) L. major promastigotes were isolated and maintained according to a described method. BALB/c mice were injected at the hind footpads with 1 × 10^6 L. major metacyclic promastigotes. L. major amastigotes were collected from the infected mice. After 8 weeks had elapsed since inoculation, Schneider’s medium (Invitrogen, USA) containing antibiotics and 10% FBS was used to transform isolated amastigotes into promastigotes by incubation at 26 °C. Amastigote-derived promastigotes with less than five in vitro passages were only used for infection.
To assess the activity of the compounds against L. major promastigotes, 10^6 promastigotes/mL were cultured in 96-well plates in Schneider’s medium with 10% FBS. Then, the compounds or amphotericin B (AmB) were added to obtain the final concentrations (50, 25, 12.5, 6.25, 3.13, 1.65, 0.75, or 0.37 μg mL^–1). Negative control wells contained cultures with DMSO (1%) only. Plates were incubated at 26 °C for 72 h to evaluate the antiproliferative effect. The colorimetric MTT method was used to count viable promastigotes under a microplate absorbance spectrophotometer (xMark, Bio-Rad, USA) at 570 nm. The experiment was performed in triplicate.

Another assay deals with Vero cells. The assay can be described thus: Cytotoxicity assay (MTT), Vero cells. The format is cell-based, African Green Monkey. The following applies: Chlorocebus sabaeus, 72 h, mean ± SD. The method, then: (§2) The MTT colorimetric assay was conducted to assess the cytotoxicity of the compounds according to a method described previously. Briefly, Vero cells or macrophages were cultured in 96-well plates (5 × 10^3 cells/well/200 μL) in RPMI 1640 medium with 10% FBS at 37 °C and under 5% CO2 for 24 h. Thereafter, PBS was used to wash the cells. Then, the compounds in RPMI complete medium with 10% FBS (at varying concentrations of 50, 25, 12.5, 6.25, 3.13, 1.65, 0.75, or 0.37 μg mL^–1) were added to 96-well plates and incubated for 72 h. Cells treated with a medium containing only DMSO (1%) were used as the negative control. After washing, MTT (1 mg mL^–1 in RPMI 1640 medium) was added to each well. The cells were incubated for 4 h, and the supernatant was removed. Next, 150 μL of DMSO was added, and a microplate absorbance spectrophotometer was applied for colorimetric analysis (λ = 540 nm). Cytotoxic effects were expressed by IC50 values (concentration that caused a 50% reduction of viable cells). The experiment was performed in triplicate.

The subject of another assay is macrophages. Put plainly: Cytotoxicity assay (MTT), macrophages. The format is cell-based, BALB/c mouse. The following applies: Mus musculus, Macrophage; 72 h, mean ± SD; read-out: IC50 macro. The method, then:
(§3) Female BALB/c mouse peritoneal macrophages (6–8 weeks old) were used to culture L. major amastigotes to assess the activity of the compounds against amastigotes. Briefly, 1 mL of 3% Brewer’s thioglycollate medium/mouse was injected into the peritoneal cavity. After 4 days, the abdominal skin was removed to expose the peritoneal wall. Then, 3 mL of RPMI 1640 medium was injected before cells were collected by aspiration, whereupon 96-well plates containing RPMI 1640 medium with 10% FBS were used to culture 5 × 10^4 cells/well, which were incubated at 37 °C under 5% CO2 for 4 h. After washing with PBS, RPMI 1640 medium containing 5 × 10^5 promastigotes were added to each well. Next, the cells were incubated at 37 °C under humidified 5% CO2 for 24 h to enhance infection and differentiation of amastigotes. Washing with PBS several times removed free promastigotes. Fresh complete RPMI 1640 medium containing one of the tested compounds or AmB at the desired final concentration (50, 25, 12.5, 6.25, 3.13, 1.65, 0.75, or 0.37 μg mL^–1) was added and incubated at 37 °C under a humidified 5% CO2 atmosphere for 72 h. DMSO (1%), only in complete RPMI media, was used as the negative control. The percentage of infected macrophages was assessed microscopically after the medium was removed, followed by washing with PBS, fixation with methanol, and staining with Giemsa. The reading was performed in triplicate. Handling of the laboratory animals followed the instructions and rules of the Committee of Research Ethics, Deanship of Scientific Research, Qassim University, permission number 20–03–20.
as §2

Assay [2] concerns T. gondii tachyzoites (RH strain). Put plainly: Anti-Toxoplasma activity (infection index in Vero cells, 72 h). The format is cell-based, Toxoplasma gondii. Conditions: mean ± SD. The method, then: Tachyzoites of the T. gondii RH strain were cultivated in Vero cells according to a published method. Complete RPMI 1640 medium (Invitrogen, USA) with 10% fetal bovine serum (FBS, Invitrogen, USA) was used to culture Vero cells in 96-well plates (5 × 10^3 cells/well in 200 μL of medium), which were incubated at 37 °C and under 5% CO2 for 24 h. This was followed by washing with phosphate-buffered saline (PBS) to remove the medium. Then, RPMI 1640 medium with 2% FBS containing T. gondii tachyzoites (RH strain) at a ratio of 5 (parasite): 1 (Vero cells) was added. After incubation at 37 °C and under 5% CO2 for 5 h, the cells were washed with PBS and overlaid with medium containing one of the tested compounds or atovaquone (ATO) at 50, 25, 12.5, 6.25, 3.13, 1.65, 0.75, or 0.37 μg mL^–1.
After incubation at 37 °C and under 5% CO2 for 72 h, the cells were stained with 1% toluidine before being examined under an inverted photomicroscope (MCD-400, Leica, Japan) to determine the T. gondii infection index (number of infected cells from 200 tested cells). The experiment was performed in triplicate.

A further assay relates to L. major amastigotes. The assay can be described thus: Activity against L. major amastigotes in peritoneal macrophages (percentage of infected macrophages, Giemsa, 72 h). Conditions: Leishmania major, intracellular amastigotes, mean ± SD, read-out: EC50 L. major ama. The format is cell-based, Leishmania major. The method, then: as §1, §3
For assay [3], the system named is L. amazonensis promastigotes. Also noted: method as in Oliveira and co-workers. Conditions: ref Oliveira and co-workers, cited from earlier work.

Molecules are shown by their SMILES. Read-outs that look alike come from different tables or passages of the source. Some results are limits rather than exact numbers.

By IC50 is commonly meant the concentration that inhibits the measured activity by half. What is called EC50 is the concentration giving half of the maximal effect. For `CCOC(=O)C1=C(C)NC2=C(C(=O)CC(C)(C)C2)C1c1cccc(F)c1` (centres unmarked) [Compound 7], the values for the IC50 (in assay [1]; in the assay on Vero cells; in the assay on macrophages) were 12.5 µM, more than 58.2 µM and more than 58.2 µM, respectively. Besides, the EC50 in the assay with L. major promastigotes (Leishmania major) is more than 58.2 µM; in assay [2] (Toxoplasma gondii, Vero), more than 58.2 µM; in the assay on L. major amastigotes, more than 58.2 µM.

Regarding `CCOC(=O)C1=C(C)NC2=C(C(=O)CC(C)(C)C2)C1c1ccc2c(c1)OCO2` (centres unmarked) [Compound 12], the half-maximal effective concentration (EC50) is less than 50 µM in the assay on L. major promastigotes (Leishmania major); 47.5 ± 6.2 µM in the assay with L. major promastigotes; 30.3 ± 5.2 µM in assay [2] (Toxoplasma gondii, Vero); more than 60.6 µM in the assay on L. major amastigotes. In assay [3], the “activity against L. amazonensis promastigotes” value (shortened to “activity”) was “inactive”. Also, the results for the IC50 in the assay with Vero cells and with macrophages were 14.9 ± 2.6 µM and 42.5 ± 7.2 µM, respectively.

In the case of `CCOC(=O)C1=C(C)NC2=C(C(=O)CC(C)(C)C2)C1c1cc(OC)c(OC)c(OC)c1` (centres unmarked) [Compound 13], the EC50 is more than 48.4 µM with L. major promastigotes (Leishmania major); more than 48.4 µM in assay [2] (Toxoplasma gondii, Vero); more than 48.4 µM with L. major amastigotes. The IC50 in assay [3] (read-out: IC50 against L. amazonensis promastigotes) was 24.6 µM; in the assay with Vero cells, more than 48.4 µM; in the assay with macrophages, more than 48.4 µM.

As to `CCOC(=O)C1=C(C)NC2=C(C(=O)CC(C)(C)C2)C1c1c(OC)cc(OC)cc1OC` (centres unmarked) [Compound 14], in assay [3], the “activity” value is “inactive”. Also, the concentration for half-maximal inhibition (IC50) in the assay with Vero cells came to 22.8 ± 3.3 µM; in the assay on macrophages, 16.8 ± 3.1 µM. Moreover, the EC50 is more than 48.4 µM in assay [2] (Toxoplasma gondii, Vero) and 21 ± 3.9 µM with L. major amastigotes.

On to `CCOC(=O)C1=C(C)NC2=C(C(=O)CC(C)(C)C2)C1c1cccs1` (centres unmarked) [Compound 16], for which the EC50 in the assay on L. major promastigotes (Leishmania major) is more than 49.3 µM; in assay [2] (Toxoplasma gondii, Vero), 8.1 ± 1.3 µM; in the assay with L. major amastigotes, 31.8 ± 5.4 µM. Besides, the IC50 in the assay on Vero cells amounted to 12.6 ± 2.1 µM; with macrophages, 29.9 ± 5.1 µM.

Regarding `CCOC(=O)C1=C(C)NC(C)=C(C(=O)OCC)C1c1ccccc1` [Compound 17], the concentration giving a half-maximal response (EC50) is more than 63.1 µM with L. major promastigotes (Leishmania major); less than 50 µM in assay [2] (Toxoplasma gondii, Vero); 49.8 ± 6.5 µM in assay [2]; more than 63.1 µM with L. major amastigotes. The IC50 in the assay on Vero cells was 60.1 ± 10.6 µM; with macrophages it was more than 63.1 µM.

As for `CCOC(=O)C1=C(C)NC(C)=C(C(=O)OCC)C1c1ccc(OC)cc1` [Compound 18], the concentration giving a half-maximal response (EC50) in the assay on L. major promastigotes (Leishmania major) was more than 57.9 µM; in assay [2] (Toxoplasma gondii, Vero) it was more than 57.9 µM; in the assay on L. major amastigotes, more than 57.9 µM. Further, the half-maximal inhibitory concentration (IC50) in the assay on Vero cells is 45.4 ± 7.8 µM; in the assay on macrophages, more than 57.9 µM.

Consider `CCOC(=O)C1=C(C)NC(C)=C(C(=O)OCC)C1c1ccc(OCc2ccccc2)cc1` [Compound 19], for which the EC50 in the assay with L. major promastigotes (Leishmania major) is more than 47.8 µM; in assay [2] (Toxoplasma gondii, Vero), more than 47.8 µM; with L. major amastigotes, more than 47.8 µM. Besides, the half-maximal inhibitory concentration (IC50) turned out to be 33.5 ± 6.2 µM in the assay on Vero cells and 43.4 ± 7.5 µM in the assay with macrophages.

As to `CCOC(=O)C1=C(C)NC(C)=C(C(=O)OCC)C1c1ccc(Br)cc1` [Compound 20], the concentration for a half-maximal effect (EC50) in the assay on L. major promastigotes (Leishmania major) is more than 50.9 µM; in assay [2] (Toxoplasma gondii, Vero) it was more than 50.9 µM; with L. major amastigotes, more than 50.9 µM. The IC50 in the assay with Vero cells is 35 ± 5.9 µM; in the assay with macrophages it was 44.8 ± 8.2 µM.

`CCOC(=O)C1=C(C)NC(C)=C(C(=O)OCC)C1c1cccc(F)c1` [Compound 21]: the EC50 with L. major promastigotes (Leishmania major) is more than 59.9 µM; in assay [2] (Toxoplasma gondii, Vero) it was more than 59.9 µM; with L. major amastigotes it was more than 59.9 µM. In addition, the IC50 with Vero cells and in the assay with macrophages was more than 59.9 µM throughout.

Take `CCOC(=O)C1=C(C)NC(C)=C(C(=O)OCC)C1c1cccc([N+](=O)[O-])c1` [Compound 22]: the EC50 with L. major promastigotes (Leishmania major) is less than 50 µM; in the assay with L. major promastigotes, 46.5 ± 7.7 µM; in the assay on L. major amastigotes, more than 55.6 µM. In addition, the “activity” value in assay [3] is “inactive”. In addition, the 50% inhibitory concentration (IC50) worked out at 29.9 ± 4.4 µM in the assay with Vero cells and 46.5 ± 7.4 µM in the assay on macrophages.

`CCOC(=O)C1=C(C)NC(C)=C(C(=O)OCC)C1c1ccc(O)c(OC)c1` [Compound 23]: the 50% effective concentration (EC50) is more than 55.4 µM in the assay with L. major promastigotes (Leishmania major); less than 50 µM in assay [2] (Toxoplasma gondii, Vero); 29.8 ± 4.8 µM in assay [2]; more than 55.4 µM in the assay with L. major amastigotes. Further, the 50% inhibitory concentration (IC50) in the assay with Vero cells was 22.1 ± 3.2 µM; in the assay on macrophages it was 40.5 ± 6.8 µM.

`CCOC(=O)C1=C(C)NC(C)=C(C(=O)OCC)C1c1cc(OC)c(OC)c(OC)c1` [Compound 24]: the EC50 in the assay on L. major promastigotes (Leishmania major) was less than 50 µM; with L. major promastigotes it was 42.7 ± 8 µM; in assay [2] (Toxoplasma gondii, Vero), more than 49.6 µM; with L. major amastigotes, more than 49.6 µM. Besides, the “activity” value in assay [3] is “inactive”. Further, the IC50 came out at 14.8 ± 2.6 µM in the assay with Vero cells and 34.1 ± 5.5 µM with macrophages.

(Values after paper PMC12290673, “Antileishmanial and Antitoxoplasmal Activities of 1,4-Dihydropyridines” (ACS Omega, 2025).)
